Results on three molecules are retold here after patent US20090022664A1, “Radiolabelling via fluorination of aziridines” (priority 2007, published 2009).

A short description of series [1]: Plasma stability of the β-fluoro amines. To be noted: in solution with Human Plasma; aliquots incubated for different time periods. Type of series: in vitro ADME. The protocol:
675 μl EtOH were added to the reactive-vial and then 5 aliquots of 70 μl of the Plasma solution were incubated for different time periods.

Series [2] in a line: Hydrolytic stability of the β-fluoro amines. Type of series: physicochemical. The settings on record: under neutral and basic conditions (FIG. 2). An excerpt: The β-fluoro amino acid derivative 11ab-18F is quite stable under neutral and basic conditions (FIG. 2).

`CC(C)c1cc(C(C)C)c(S(=O)(=O)NC2CN(C(=O)CCC(=O)NCc3ccccc3)CC2[18F])c(C(C)C)c1` (stereo not drawn) [35aa-18F, N-Benzyl-4-[3-[^18F]fluoro-4-(2,4,6-triisopropyl-benzene-sulfonylamino)-pyrrolidin-1-yl]-4-oxo-butyramide]: in series [1], the Plasma stability result was “stable”. On the same count and under the same terms, the result for `COc1ccc(S(=O)(=O)NC(C[18F])C(=O)NCc2ccccc2)cc1OC` (stereo not drawn) [11ac-18F, 3-[^18F]Fluoro-N-benzyl-2-(3,4-dimethoxyphenylsulphon-amido)-propanamide] reads “stable”. Consider `CC(C)c1cc(C(C)C)c(S(=O)(=O)NC(C[18F])C(=O)NCc2ccccc2)c(C(C)C)c1` (stereo not drawn) [11ab-18F, 3-[^18F]Fluoro-N-benzyl-2-(2,4,6-triisopropylphenylsulphon-amido)-propanamide], for which the Hydrolytic stability result in series [2] is reported as “quite stable”.
